Data published in US20190374627A1, “TARGET PEPTIDES FOR CANCER THERAPY AND DIAGNOSTICS” (priority 2016, published 2019).
Square brackets hold non-standard residues; d marks the D form. Ends that are not written are not given here. pT = C[C@@H](OP(=O)(O)O)[C@H](N)C(=O)O; pS = N[C@@H](COP(=O)(O)O)C(=O)O

Columns and labels:
[1] = system: expanded lymphocyte cultures from deceased donor livers, cirrhotic livers and HCC; assay: ICS for MHC-I-pP reactivity of liver-derived lymphocyte cultures after phosphopeptide-specific expansion; assay type: cell-based, human; conditions: for ppCTL response, Deceased Donor Liver Do 2 / ppCTL response, Deceased Donor Liver Do 3 / ppCTL response, Deceased Donor Liver Do 4 / ppCTL response, Deceased Donor Liver Do 6 / ppCTL response, End-stage Liver Cirrhosis IHL 11 / ppCTL response, End-stage Liver Cirrhosis IHL 12 / ppCTL response, End-stage Liver Cirrhosis IHL 13 / ppCTL response, End-stage Liver Cirrhosis IHL 15 / ppCTL response, HCC Distal HCC 1 / ppCTL response, HCC Tumor HCC 1 / ppCTL response, HCC Distal HCC 4 / ppCTL response, HCC Distal HCC 9 / ppCTL response, HCC Tumor HCC 9 / ppCTL response, HCC Distal HCC 12: pP-specifically expanded culture; for ppCTL response, HCC Distal HCC 1: HCC 1 Distal; for ppCTL response, HCC Tumor HCC 1: HCC 1 Tumor; for ppCTL response, HCC Distal HCC 4: HCC 4 Distal; for ppCTL response, HCC Distal HCC 9: HCC 9 Distal; for ppCTL response, HCC Tumor HCC 9: HCC 9 Tumor; for ppCTL response, HCC Distal HCC 12: HCC 12 Distal
CD8^+ T cells (PBMCs) = assay: Intracellular cytokine staining (ICS) of PBMCs after 7 days of stimulation with MHC-I-pP (healthy donors, HH patients); assay type: cell-based, human; conditions: for Reactive CD8^+ T cell population, HH2: HH patient HH2; for Reactive CD8^+ T cell population, HH3: HH patient HH3; for Reactive CD8^+ T cell population, HH6: HH patient HH6; for Reactive CD8^+ T cell population, HH8: HH patient HH8; for Reactive CD8^+ T cell population, HH11: HH patient HH11; for Reactive CD8^+ T cell population, HD1: Healthy donor HD1; for Reactive CD8^+ T cell population, HD4: Healthy donor HD4; for Reactive CD8^+ T cell population, HD5: Healthy donor HD5
Summary of the method: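 PBMCs or liver lymphocytes from HLA-A*0201-positive healthy donors and hereditary hemochromatosis patients were stimulated for 7 days with HLA-A*0201-restricted phosphopeptides and no added cytokines. After exclusion of doublets and dead cells with a fixable viability dye, CD3^+CD8^+ cells were analysed by intracellular staining for IFN-γ and TNF-α, plus CD107a where needed.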

[2] = system: unexpanded lymphocyte cultures (CD8^+ T cells); assay: ICS for MHC-I-pP reactivity of lymphocyte cultures without expansion (Table 23, No Expansion)
[3] = system: expanded TIL / IHL cultures; assay: ICS for MHC-I-pP reactivity of liver-derived lymphocyte cultures after unspecific rapid expansion protocol (REP); assay type: cell-based, human

## FLDtPIAKV: NKD1 phosphopeptide, HLA-A*0201 (FLD[pT]PIAKV; listed as Homo sapiens)
[1]
  Reactive CD8^+ T cells, pP-specific Expansion, Do2: 0 (<0.25% reactive CD8^-+ T cells)
  Reactive CD8^+ T cells, pP-specific Expansion, Do4: 0 (<0.25% reactive CD8^-+ T cells)
  Reactive CD8^+ T cells, pP-specific Expansion, HH6: 2 (2.5-5.0% reactive CD8^-+ T cells)
  ppCTL response, Deceased Donor Liver Do 2: 0 (<0.25% reactive CD8-+ T cells)
  ppCTL response, Deceased Donor Liver Do 3: 0 (<0.25% reactive CD8-+ T cells)
  ppCTL response, Deceased Donor Liver Do 4: 0 (<0.25% reactive CD8-+ T cells)
  ppCTL response, Deceased Donor Liver Do 6: 0 (<0.25% reactive CD8-+ T cells)
  ppCTL response, End-stage Liver Cirrhosis IHL 11: 0 (<0.25% reactive CD8-+ T cells)
  ppCTL response, End-stage Liver Cirrhosis IHL 12: 0 (<0.25% reactive CD8-+ T cells)
  ppCTL response, End-stage Liver Cirrhosis IHL 13: 0 (<0.25% reactive CD8-+ T cells)
  ppCTL response, End-stage Liver Cirrhosis IHL 15: 0 (<0.25% reactive CD8-+ T cells)
  ppCTL response, HCC Distal HCC 1: 0 (<0.25% reactive CD8-+ T cells)
  ppCTL response, HCC Tumor HCC 1: 0 (<0.25% reactive CD8-+ T cells)
  ppCTL response, HCC Distal HCC 4: 0 (<0.25% reactive CD8-+ T cells)
  ppCTL response, HCC Distal HCC 9: 0 (<0.25% reactive CD8-+ T cells)
  ppCTL response, HCC Tumor HCC 9: 0 (<0.25% reactive CD8-+ T cells)
  ppCTL response, HCC Distal HCC 12: 0 (<0.25% reactive CD8-+ T cells)
CD8^+ T cells (PBMCs)
  Reactive CD8^+ T cell population, HH2: 0 (<0.25% reactive CD8^-+ T cells)
  Reactive CD8^+ T cell population, HH3: 0 (<0.25% reactive CD8^-+ T cells)
  Reactive CD8^+ T cell population, HH6: 0 (<0.25% reactive CD8^-+ T cells)
  Reactive CD8^+ T cell population, HH8: 0 (<0.25% reactive CD8^-+ T cells)
  Reactive CD8^+ T cell population, HH11: 0 (<0.25% reactive CD8^-+ T cells)
  Reactive CD8^+ T cell population, HD1: 0 (<0.25% reactive CD8^-+ T cells)
  Reactive CD8^+ T cell population, HD4: 0 (<0.25% reactive CD8^-+ T cells)
  Reactive CD8^+ T cell population, HD5: 0 (<0.25% reactive CD8^-+ T cells)
[2]
  Reactive CD8^+ T cells, No Expansion, HH6: 0 (<0.25% reactive CD8^-+ T cells)
[3]
  Reactive CD8^+ T cells, Non-specific Expansion, Do2: 1 (0.25-2.5% reactive CD8^-+ T cells)
  Reactive CD8^+ T cells, Non-specific Expansion, Do4: 0 (<0.25% reactive CD8^-+ T cells)
  Reactive CD8^+ T cells, Non-specific Expansion, HH6: 0 (<0.25% reactive CD8^-+ T cells)

## NLVPMVATV (Cytomegalovirus) [reference compound]
[1]
  Reactive CD8^+ T cells, pP-specific Expansion, Do2: 3 (5-7.5% reactive CD8^-+ T cells)
  Reactive CD8^+ T cells, pP-specific Expansion, Do4: 2 (2.5-5.0% reactive CD8^-+ T cells)
  Reactive CD8^+ T cells, pP-specific Expansion, HH6: 3 (5-7.5% reactive CD8^-+ T cells)
  ppCTL response, Deceased Donor Liver Do 2: 3 (5-7.5% reactive CD8-+ T cells)
  ppCTL response, Deceased Donor Liver Do 3: 0 (<0.25% reactive CD8-+ T cells)
  ppCTL response, Deceased Donor Liver Do 4: 2 (2.5-5.0% reactive CD8-+ T cells)
  ppCTL response, Deceased Donor Liver Do 6: 0 (<0.25% reactive CD8-+ T cells)
  ppCTL response, End-stage Liver Cirrhosis IHL 11: 0 (<0.25% reactive CD8-+ T cells)
  ppCTL response, End-stage Liver Cirrhosis IHL 12: 0 (<0.25% reactive CD8-+ T cells)
  ppCTL response, End-stage Liver Cirrhosis IHL 13: 0 (<0.25% reactive CD8-+ T cells)
  ppCTL response, End-stage Liver Cirrhosis IHL 15: 0 (<0.25% reactive CD8-+ T cells)
  ppCTL response, HCC Distal HCC 1: 1 (0.25-2.5% reactive CD8-+ T cells)
  ppCTL response, HCC Tumor HCC 1: 0 (<0.25% reactive CD8-+ T cells)
  ppCTL response, HCC Distal HCC 4: 0 (<0.25% reactive CD8-+ T cells)
  ppCTL response, HCC Distal HCC 9: 0 (<0.25% reactive CD8-+ T cells)
  ppCTL response, HCC Tumor HCC 9: 0 (<0.25% reactive CD8-+ T cells)
  ppCTL response, HCC Distal HCC 12: 0 (<0.25% reactive CD8-+ T cells)
CD8^+ T cells (PBMCs)
  Reactive CD8^+ T cell population, HH2: 4 (7.5-10% reactive CD8^-+ T cells)
  Reactive CD8^+ T cell population, HH3: 0 (<0.25% reactive CD8^-+ T cells)
  Reactive CD8^+ T cell population, HH6: 1 (0.25-2.5% reactive CD8^-+ T cells)
  Reactive CD8^+ T cell population, HH8: 1 (0.25-2.5% reactive CD8^-+ T cells)
  Reactive CD8^+ T cell population, HH11: 0 (<0.25% reactive CD8^-+ T cells)
  Reactive CD8^+ T cell population, HD1: 0 (<0.25% reactive CD8^-+ T cells)
  Reactive CD8^+ T cell population, HD4: 0 (<0.25% reactive CD8^-+ T cells)
  Reactive CD8^+ T cell population, HD5: 0 (<0.25% reactive CD8^-+ T cells)
CD8^+ T cells (PBMCs); HH patient HH10
  Reactive CD8^+ T cell population, HH10: 3 (5-7.5% reactive CD8^-+ T cells)
CD8^+ T cells (PBMCs); Healthy donor HD2
  Reactive CD8^+ T cell population, HD2: 0 (<0.25% reactive CD8^-+ T cells)
CD8^+ T cells (PBMCs); Healthy donor HD3
  Reactive CD8^+ T cell population, HD3: 0 (<0.25% reactive CD8^-+ T cells)
[2]; Do4
  Reactive CD8^+ T cells, No Expansion, Do4: 2 (2.5-5.0% reactive CD8^-+ T cells)
[2]
  Reactive CD8^+ T cells, No Expansion, HH6: 1 (0.25-2.5% reactive CD8^-+ T cells)
[3]
  Reactive CD8^+ T cells, Non-specific Expansion, Do2: 0 (<0.25% reactive CD8^-+ T cells)
  Reactive CD8^+ T cells, Non-specific Expansion, Do4: 5 (10-20% reactive CD8^-+ T cells)
  Reactive CD8^+ T cells, Non-specific Expansion, HH6: 1 (0.25-2.5% reactive CD8^-+ T cells)

## ALDsGASLLHL: RIPK4 phosphopeptide, HLA-A*0201 (ALD[pS]GASLLHL; listed as Homo sapiens)
[1]
  Reactive CD8^+ T cells, pP-specific Expansion, Do2: 0 (<0.25% reactive CD8^-+ T cells)
  Reactive CD8^+ T cells, pP-specific Expansion, Do4: 0 (<0.25% reactive CD8^-+ T cells)
  Reactive CD8^+ T cells, pP-specific Expansion, HH6: 2 (2.5-5.0% reactive CD8^-+ T cells)
  ppCTL response, Deceased Donor Liver Do 2: 0 (<0.25% reactive CD8-+ T cells)
  ppCTL response, Deceased Donor Liver Do 3: 0 (<0.25% reactive CD8-+ T cells)
  ppCTL response, Deceased Donor Liver Do 4: 0 (<0.25% reactive CD8-+ T cells)
  ppCTL response, Deceased Donor Liver Do 6: 0 (<0.25% reactive CD8-+ T cells)
  ppCTL response, End-stage Liver Cirrhosis IHL 11: 0 (<0.25% reactive CD8-+ T cells)
  ppCTL response, End-stage Liver Cirrhosis IHL 12: 0 (<0.25% reactive CD8-+ T cells)
  ppCTL response, End-stage Liver Cirrhosis IHL 13: 0 (<0.25% reactive CD8-+ T cells)
  ppCTL response, End-stage Liver Cirrhosis IHL 15: 3 (5-7.5% reactive CD8-+ T cells)
  ppCTL response, HCC Distal HCC 1: 0 (<0.25% reactive CD8-+ T cells)
  ppCTL response, HCC Tumor HCC 1: 0 (<0.25% reactive CD8-+ T cells)
  ppCTL response, HCC Distal HCC 4: 0 (<0.25% reactive CD8-+ T cells)
  ppCTL response, HCC Distal HCC 9: 0 (<0.25% reactive CD8-+ T cells)
  ppCTL response, HCC Tumor HCC 9: 0 (<0.25% reactive CD8-+ T cells)
  ppCTL response, HCC Distal HCC 12: 0 (<0.25% reactive CD8-+ T cells)
CD8^+ T cells (PBMCs)
  Reactive CD8^+ T cell population, HH2: 0 (<0.25% reactive CD8^-+ T cells)
  Reactive CD8^+ T cell population, HH3: 0 (<0.25% reactive CD8^-+ T cells)
  Reactive CD8^+ T cell population, HH6: 0 (<0.25% reactive CD8^-+ T cells)
  Reactive CD8^+ T cell population, HH8: 0 (<0.25% reactive CD8^-+ T cells)
  Reactive CD8^+ T cell population, HH11: 1 (0.25-2.5% reactive CD8^-+ T cells)
  Reactive CD8^+ T cell population, HD1: 0 (<0.25% reactive CD8^-+ T cells)
  Reactive CD8^+ T cell population, HD4: 0 (<0.25% reactive CD8^-+ T cells)
  Reactive CD8^+ T cell population, HD5: 0 (<0.25% reactive CD8^-+ T cells)
[2]
  Reactive CD8^+ T cells, No Expansion, HH6: 2 (2.5-5.0% reactive CD8^-+ T cells)
[3]
  Reactive CD8^+ T cells, Non-specific Expansion, Do2: 0 (<0.25% reactive CD8^-+ T cells)
  Reactive CD8^+ T cells, Non-specific Expansion, Do4: 0 (<0.25% reactive CD8^-+ T cells)
  Reactive CD8^+ T cells, Non-specific Expansion, HH6: 0 (<0.25% reactive CD8^-+ T cells)
